Assay results as given in patent US10562891B2, “Quinazolinones as PARP14 inhibitors” (Ribon Therapeutics Inc., priority 2017, dated 2020).
Where a name gives a salt, the structure may show the parent alone.

molecular target: catalytic domain of human PARP14 (Homo sapiens (Human), UniProt Q460N5); assay: Enzymatic assay for inhibition of PARP14 (DELFIA, auto-modification with biotin-NAD); type: biochemical; details: auto-modification of PARP14 by biotin-NAD, 50 nM PARP14, 3 μM biotin-NAD
Procedure, shortened: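 DELFIA auto-modification read-out: europium-streptavidin bound to biotin-NAD incorporated onto nickel-captured His-TEV PARP14 catalytic domain. Compound preincubated 30 min, then 50 nM enzyme with 3 μM biotin-NAD reacted 3 h, all at 25 °C, pH 8, then NAD quench. Percent inhibition normalized to rucaparib/DMSO wells, fitted (4- or 3-parameter) for IC50.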

Sequence of catalytic domain of human PARP14 (Q460N5 1611-1801): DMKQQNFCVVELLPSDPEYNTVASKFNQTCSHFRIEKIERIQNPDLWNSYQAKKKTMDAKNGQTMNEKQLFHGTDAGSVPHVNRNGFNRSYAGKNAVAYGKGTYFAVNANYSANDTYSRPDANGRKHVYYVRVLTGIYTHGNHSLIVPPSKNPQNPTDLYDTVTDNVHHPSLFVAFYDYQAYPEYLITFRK

Compound	IC50
O=c1[nH]c(CSC2CCOCC2)nc2cc(NCc3cccnc3)ccc12 [Example 123, 7-((Pyridin-3-ylmethyl)amino)-2-(((tetrahydro-2H-pyran-4-yl)thio)methyl)quinazolin-4(3H)-one]	< 1 µM
Cc1cccc2c(=O)[nH]c(CSC3CCCN(C)C3)nc12 (centres unmarked) [Example 32, 8-Methyl-2-(((1-methylpiperidin-3-yl)thio)methyl)quinazolin-4(3H)-one]	1 to 10 µM
CC(=O)N1CCC(SCc2nc3cc(N[C@@H]4CCCN(S(C)(=O)=O)C4)ccc3c(=O)[nH]2)CC1 [Example 268, (R)-2-(((1-acetylpiperidin-4-yl)thio)methyl)-7-((1-(methylsulfonyl)piperidin-3-yl)amino)quinazolin-4(3H)-one]	< 1 µM
O=c1[nH]c(CSC2CCOCC2)nc2cc(NCc3ccccn3)ccc12 [Example 118, 7-((Pyridin-2-ylmethyl)amino)-2-(((tetrahydro-2H-pyran-4-yl)thio)methyl)quinazolin-4(3H)-one]	1 to 10 µM
N#CCN1CCC(SCc2nc3cc(NC4CCCC4)cc(F)c3c(=O)[nH]2)CC1 [Example 285, 2-(4-(((7-(Cyclopentylamino)-5-fluoro-4-oxo-3,4-dihydroquinazolin-2-yl)methyl)thio)piperidin-1-yl)acetonitrile]	< 1 µM
Cc1cccc2c(=O)[nH]c(CSC3CCN(Cc4cc[nH]n4)CC3)nc12 [Example 142, 2-(((1-((1H-Pyrazol-3-yl)methyl)piperidin-4-yl)thio)methyl)-8-methylquinazolin-4(3H)-one trifluoroacetate]	< 1 µM
O=C(Nc1ccc2c(=O)[nH]c(CSC3CCOCC3)nc2c1)c1ccccc1 [Example 76, N-(4-Oxo-2-(((tetrahydro-2H-pyran-4-yl)thio)methyl)-3,4-dihydroquinazolin-7-yl)benzamide]	1 to 10 µM
O=c1[nH]c(CSC2CCOCC2)nc2ccncc12 [Example 40, 2-(((Tetrahydro-2H-pyran-4-yl)thio)methyl)pyrido[4,3-d]pyrimidin-4(3H)-one]	> 10 µM
O=c1[nH]c(CSC2CCOCC2)nc2c(Cl)cccc12 [Example 5]	1 to 10 µM

Now from value to compound:

IC50	Compound
< 1 µM	CC(=O)N1CCC(COc2cc(F)c3c(=O)[nH]c(CS[C@H]4CC[C@](C)(O)CC4)nc3c2)CC1 [Example 409]
< 1 µM	O=c1[nH]c(CSC2CCOCC2)nc2cc(NC3CCCCC3)ccc12 [Example 108, 7-(Cyclohexylamino)-2-(((tetrahydro-2H-pyran-4-yl)thio)methyl)quinazolin-4(3H)-one]
< 1 µM	O=c1[nH]c(CSC2CCOCC2)nc2cc(NC3CCCC3)cc(F)c12 [Example 184, 7-(cyclopentylamino)-5-fluoro-2-(((tetrahydro-2H-pyran-4-yl)thio)methyl)quinazolin-4(3H)-one]
< 1 µM	CN1CCOC(COc2cc(F)c3c(=O)[nH]c(CSC4CCOCC4)nc3c2)C1 (centres unmarked) [Example 414]
< 1 µM	O=c1[nH]c(CS[C@H]2CC[C@H](O)CC2)nc2cc(NC3CCN(CCC(F)(F)F)CC3)c(F)c(F)c12 [Example 354]
< 1 µM	Cc1cc(Cl)cc2c(=O)[nH]c(CSC3CCOCC3)nc12 [Example 44, 6-Chloro-8-methyl-2-(((tetrahydro-2H-pyran-4-yl)thio)methyl)quinazolin-4(3H)-one]
< 1 µM	O=c1[nH]c(CSC2CCOCC2)nc2cc(OCC3CCNCC3)cc(F)c12 [Example 399]
< 1 µM	O=c1[nH]c(CSC2CCOCC2)nc2cc(OCC3CCOCC3)c(F)c(F)c12 [Example 406]
1 to 10 µM	COC(C)(C)CNc1cc2nc(CSC3CCOCC3)[nH]c(=O)c2c(F)c1F [Example 407]
< 1 µM	O=c1[nH]c(CSC2CCOCC2)nc2cc(NC3CCCCC3(F)F)cc(F)c12 (centres unmarked) [Example 345]
< 1 µM	O=c1[nH]c(CSC2CCS(=O)(=O)CC2)nc2cc(NC3CCCC3)c(F)c(F)c12 [Example 316, 7-(Cyclopentylamino)-2-(((1,1-dioxidotetrahydro-2H-thiopyran-4-yl)thio)methyl)-5,6-difluoroquinazolin-4(3H)-one]
